Data published in patent US5998362A, “Conjugates useful in the treatment of prostate cancer” (priority 1997, dated 1999).
Where a SMILES comes first, the peptide text is derived from it. [ ]: non-standard residue; d: D form. The star is where a group is joined. Doxorubicin(3'-N) = COc1cccc2c1C(=O)c1c(O)c3c(c(O)c1C2=O)C[C@@](O)(C(=O)CO)C[C@@H]3O[C@H]1C[C@H](N*)[C@H](O)[C@H](C)O1; Decanoyl(3,6,9-trioxa) = COCCOCCOCC(=O)*; Glyceroyl(2R) = O=C([C@H](O)CO)*; X1 = COCCOCCOCCOCCOCCOCCOCC(=O)*; hArg = N=C(N)NCCCC[C@H](N)C(=O)O; 3Pal = N[C@@H](Cc1cccnc1)C(=O)O; X4 = O=C([C@H](O)[C@@H](O)CO)*; Chg = N[C@H](C(=O)O)C1CCCCC1; Nle = CCCC[C@H](N)C(=O)O; Glycolyl = O=C(CO)*

Experiments:
[1] = tested on: DuPRO cells; assay: In vitro cytotoxicity of peptidyl derivatives of doxorubicin, Alamar Blue assay, DuPRO; format: cell-based; details: 3 days incubation, read-out: DuPRO cell kill EC 50 (μM), value in parentheses
Method: (§1) The cytotoxicities of the cleaveable oligopeptide-doxorubicin conjugates, prepared as described in Examples 3-6, against a line of cells which is known to be killed by unmodified doxorubicin was assessed with an Alamar Blue assay. Specifically, cell cultures of LNCap prostate tumor cells or DuPRO cells in 96 well plates was diluted with medium containing various concentrations of a given conjugate (final plate well volume of 200 μl). The cells were incubated for 3 days at 37° C., 20 μl of Alamar Blue is added to the assay well. The cells were further incubated and the assay plates were read on a EL-310 ELISA reader at the dual wavelengths of 570 and 600 nm at 4 and 7 hours after addition of Alamar Blue. Relative percentage viability at the various concentration of conjugate tested was then calculated versus control (no conjugate) cultures. If no salt is indicated, the free conjugate was tested.

[2] = target: free PSA (Homo sapiens, UniProt P07288); assay: Recognition of oligopeptide-doxorubicin conjugates by free PSA (time to 50% cleavage, HPLC); format: biochemical; parameters: required for 50% cleavage of the noted oligopeptides with enzymatically active free PSA
Sequence of free PSA (P07288 25-261): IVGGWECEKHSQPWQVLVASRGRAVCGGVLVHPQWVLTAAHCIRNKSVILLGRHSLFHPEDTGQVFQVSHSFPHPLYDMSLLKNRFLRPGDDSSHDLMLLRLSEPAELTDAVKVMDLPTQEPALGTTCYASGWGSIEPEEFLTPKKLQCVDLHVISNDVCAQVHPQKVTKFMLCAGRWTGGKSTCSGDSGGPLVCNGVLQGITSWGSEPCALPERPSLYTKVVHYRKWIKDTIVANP
Method: If no salt is indicated for the conjugate, the free conjugate was tested.

[3] = tested on: LNCap prostate tumor cells; assay: In vitro cytotoxicity of peptidyl derivatives of doxorubicin, Alamar Blue assay, LNCaP; format: cell-based
Method: as §1

COc1cccc2c1C(=O)c1c(O)c3c(c(O)c1C2=O)C[C@@](O)(C(=O)CO)C[C@@H]3O[C@H]1C[C@H](NC(=O)[C@H](CC(C)C)NC(=O)[C@H](CO)NC(=O)[C@H](CO)NC(=O)[C@H](CO)NC(=O)[C@H](CCC(N)=O)NC(=O)[C@H](Cc2ccc(O)cc2)NC(=O)[C@H](CO)NC(=O)CO)[C@H](O)[C@H](C)O1 [2-hydroxyacetyl-SYQ-SSSL-DOX(3'), 2-hydroxyacetyl-SerTyrGln-SerSerSerLeu-DOX (3')] (Glycolyl-SYQSSSL-{Doxorubicin(3'-N)}) was tested, and the EC50 [1] was 50 µM.

In the case of COc1cccc2c1C(=O)c1c(O)c3c(c(O)c1C2=O)C[C@@](O)(C(=O)CO)C[C@@H]3O[C@H]1C[C@H](NC(=O)[C@H](CC(C)C)NC(=O)[C@H](CO)NC(=O)[C@H](CCC(N)=O)NC(=O)[C@@H](NC(=O)[C@H](CO)NC(=O)[C@H](C)NC(=O)[C@H](CCCCNC(=N)N)NC(=O)CO)C2CCCCC2)[C@H](O)[C@H](C)O1 [2-hydroxyacetyl-hRASChgQ-SL-DOX(3'), 2-hydroxyacetyl-hArgAlaSerChgGln-SerLeu-DOX (3')] (Glycolyl-[hArg]AS[Chg]QSL-{Doxorubicin(3'-N)}), the EC50 [1] is reported as > 100 µM.

COc1cccc2c1C(=O)c1c(O)c3c(c(O)c1C2=O)C[C@@](O)(C(=O)CO)C[C@@H]3O[C@H]1C[C@H](NC(=O)[C@H](CC(C)C)NC(=O)[C@H](CO)NC(=O)[C@H](CCC(N)=O)NC(=O)[C@H](Cc2ccc(O)cc2)NC(=O)[C@H](CO)NC(=O)[C@H](CO)NC(=O)[C@H](CCCCNC(=N)N)NC(=O)CO)[C@H](O)[C@H](C)O1 [2-hydroxyacetyl-hRSSYQ-SL-DOX(3'), 2-hydroxyacetyl-hArgSerSerTyrGln-SerLeu-DOX (3')] (Glycolyl-[hArg]SSYQSL-{Doxorubicin(3'-N)}) was tested, and the EC50 [1] was > 100 µM.

CCCC[C@H](NC(=O)[C@H](CO)NC(=O)[C@H](CCC(N)=O)NC(=O)[C@H](Cc1ccc(O)cc1)NC(=O)[C@H](CO)NC(=O)[C@H](CO)NC(=O)[C@H](CCCCNC(=N)N)NC(=O)CO)C(=O)N[C@H]1C[C@H](O[C@H]2C[C@](O)(C(=O)CO)Cc3c(O)c4c(c(O)c32)C(=O)c2c(OC)cccc2C4=O)O[C@@H](C)[C@H]1O [2-hydroxyacetyl-hRSSYQ-SNle-DOX(3'), 2-hydroxyacetyl-hArgSerSerTyrGln-SerNle-DOX (3')] (Glycolyl-[hArg]SSYQS[Nle]-{Doxorubicin(3'-N)}) was tested, and the “Time to 50% Substrate Cleavage by York PSA (Min), value marked *” value ([2]; Table 3, alternative PSA digestion buffer 12 mM Tris pH8.0, 25 mM NaCl, 0.5 mM CaCl2) was 60 min.

In the case of COc1cccc2c1C(=O)c1c(O)c3c(c(O)c1C2=O)C[C@@](O)(C(=O)CO)C[C@@H]3O[C@H]1C[C@H](NC(=O)[C@H](CC(C)C)NC(=O)[C@H](CO)NC(=O)[C@H](CCC(N)=O)NC(=O)[C@@H](NC(=O)[C@H](CCCCNC(=N)N)NC(=O)[C@H](O)[C@@H](O)CO)C2CCCCC2)[C@H](O)[C@H](C)O1 [(2R,3S) 2,3,4-trihydroxybutanoyl-hArgChgGln-SerLeu-DOX (3')] (X4-[hArg][Chg]QSL-{Doxorubicin(3'-N)}), the “Substrate cleavage by York PSA at 4 HOUR” value ([2]; Table 3, DOX conjugates) is reported as 0%.

In the case of COc1cccc2c1C(=O)c1c(O)c3c(c(O)c1C2=O)C[C@@](O)(C(=O)CO)C[C@@H]3O[C@H]1C[C@H](NC(=O)[C@H](CC(C)C)NC(=O)[C@H](CO)NC(=O)[C@H](CCC(N)=O)NC(=O)[C@@H](NC(=O)[C@H](CO)NC(=O)[C@H](CO)NC(=O)[C@H](Cc2cccnc2)NC(=O)[C@H](O)CO)C2CCCCC2)[C@H](O)[C@H](C)O1 [(d)(2,3-dihydroxypropionyl)-3PAL-SerSerChgGln-SerLeu-DOX (3')] ({Glyceroyl(2R)}-[3Pal]SS[Chg]QSL-{Doxorubicin(3'-N)}), the EC50 [1] is reported as > 100 µM.

For COCCOCCOCC(=O)N[C@@H](CCCCN)C(=O)N[C@@H](Cc1ccc(O)cc1)C(=O)N[C@@H](CCC(N)=O)C(=O)N[C@@H](CO)C(=O)N[C@@H](CO)C(=O)N[C@@H](CO)C(=O)N[C@@H](CC(C)C)C(=O)N[C@H]1C[C@H](O[C@H]2C[C@](O)(C(=O)CO)Cc3c(O)c4c(c(O)c32)C(=O)c2c(OC)cccc2C4=O)O[C@@H](C)[C@H]1O [PEG(2)-KYQ-SSSL-DOX(3'), PEG(2)-LysTyrGln-SerSerSerLeu-DOX (3')] ({Decanoyl(3,6,9-trioxa)}-KYQSSSL-{Doxorubicin(3'-N)}), the “Substrate cleavage by York PSA at 4 HOUR” value ([2]; Table 3, DOX conjugates) was 20%.

For COCCOCCOCC(=O)N[C@@H](CO)C(=O)N[C@@H](CO)C(=O)N[C@@H](CO)C(=O)N[C@H](C(=O)N[C@@H](CCC(N)=O)C(=O)N[C@@H](CO)C(=O)N[C@H](CC(C)C)C(=O)N[C@H]1C[C@H](O[C@H]2C[C@](O)(C(=O)CO)Cc3c(O)c4c(c(O)c32)C(=O)c2c(OC)cccc2C4=O)O[C@@H](C)[C@H]1O)C1CCCCC1 [PEG(2)-SSSChgQ-S(dL)-DOX(3'), PEG(2)-SerSerSerChgGln-Ser(dLeu)-DOX (3')], the “Substrate cleavage by York PSA at 3 HOUR” value ([2]; Table 3, DOX conjugates, 3 hours) was 46%.

For COCCOCCOCC(=O)N[C@@H](CCCCNC(=N)N)C(=O)N[C@H](C(=O)N[C@@H](CCC(N)=O)C(=O)N[C@@H](CO)C(=O)N[C@@H](CC(C)C)C(=O)N[C@H]1C[C@H](O[C@H]2C[C@](O)(C(=O)CO)Cc3c(O)c4c(c(O)c32)C(=O)c2c(OC)cccc2C4=O)O[C@@H](C)[C@H]1O)C1CCCCC1 [PEG(2)-hRChgQ-SL-DOX(3'), PEG(2)-hArgChgGln-SerLeu-DOX (3')] ({Decanoyl(3,6,9-trioxa)}-[hArg][Chg]QSL-{Doxorubicin(3'-N)}), the “Solubility remark in the cell kill column (INSOLUBLE / PS)” value ([3]; Table 4, DOX conjugates, abbreviation not defined) was “INSOLUBLE”.

COCCOCCOCCOCCOCCOCCOCC(=O)N[C@@H](C)C(=O)N[C@@H](CO)C(=O)N[C@H](C(=O)N[C@@H](CCC(N)=O)C(=O)N[C@@H](CO)C(=O)N[C@@H](CC(C)C)C(=O)N[C@H]1C[C@H](O[C@H]2C[C@](O)(C(=O)CO)Cc3c(O)c4c(c(O)c32)C(=O)c2c(OC)cccc2C4=O)O[C@@H](C)[C@H]1O)C1CCCCC1 [PEG(6)-ASChgQ-SL-DOX(3'), PEG(6)-AlaSerChgGln-SerLeu-DOX (3')] (X1-AS[Chg]QSL-{Doxorubicin(3'-N)}) was tested, and the EC50 [1] was 100 µM.

In the case of “N-[2-{2-(2-methoxyethoxy)ethoxy}acetyl]-Ser-Ser-Ser-Chg-Gln-Ser-Leu-Dox [PEG(2)-SSSChgQ-SL-DOX(3')]”, the “Time to 50% Substrate Cleavage by York PSA” value ([2]; Table 3, DOX conjugates, buffer 50 mM Tris pH7.4, 140 mM NaCl, conjugate:PSA 100 to 1) is reported as 60 min, the EC50 [1] is reported as > 100 µM and the EC50 ([3]; LNCaP cells, 72 h (3 days) incubation, Alamar Blue, read-out: LNCaP Cell Kill in 72 HRS, {48 HRS} EC 50) is reported as 10 µM.
